Assay results from patent US10357493B2, “Metalloenzyme inhibitor compounds” (Selenity Therapeutics (Bermuda), Ltd., priority 2017, dated 2019).

Experiments:
HDAC1 = HDAC1 (Homo sapiens (Human), UniProt Q13547); experiment: HDAC1 enzymatic assay; assay type: biochemical; details: read-out: Human HDAC1 IC50
Description: (§1) All enzymatic reactions were conducted in duplicate at room temperature for 17 hours in a 50 μl mixture containing HDAC assay buffer (50 mM Tris-HCl, pH 7.4, 137 mM NaCl, 2.7 mM KCl, 0.05% Tween 20, 5 μg BSA), an HDAC substrate, an HDAC enzyme, and a test compound. Compound dilution was prepared ten-fold higher than the final concentration of the compounds with 10% DMSO in HDAC assay buffer and 5 μl of the dilution was added to a 50 μl reaction so that the final concentration of DMSO is 1% in all of reactions. After enzymatic reactions, 50 μl of HDAC Developer was added to each well and the plate was incubated at room temperature for an additional 20 minutes. Fluorescence intensity was measured at an excitation of 360 nm and an emission of 460 nm using a Tecan Infinite M1000 or Biotek Synergy microplate reader.
(§2) The fluorescent intensity data were analyzed using the computer software, Graphpad Prism. In the absence of the compound, the fluorescent intensity (Ft) in each data set was defined as 100% activity. In the absence of HDAC, the fluorescent intensity (Fb) in each data set was defined as 0% activity. The percent activity in the presence of each compound was calculated according to the following equation: % activity=(F−Fb)/(Ft−Fb), where F=the fluorescent intensity in the presence of the compound.
(§3) The values of % activity versus a series of compound concentrations were then plotted using non-linear regression analysis of Sigmoidal dose-response curve generated with the equation Y=B+(T−B)/1+10((Log EC50−X)×Hill Slope), where Y=percent activity, B=minimum percent activity, T=maximum percent activity, X=logarithm of compound and Hill Slope=slope factor or Hill coefficient. The IC50 value was determined by the concentration causing a half-maximal percent activity.
(§4) HDAC1 enzymatic assays contained 0.5 ng HDAC1 and 10 uM of HDAC substrate. HDAC2 enzymatic assays contained 0.5 ng HDAC2 and 10 uM of HDAC substrate. HDAC3 enzymatic assays contained 0.4 ng HDAC3/NCOR2 and 10 uM of HDAC substrate. HDAC4 enzymatic assays contained 0.02 ng HDAC4 and 2 uM of HDAC substrate. HDAC5 enzymatic assays contained 0.5 ng HDAC5 and 2 uM of HDAC substrate. HDAC6 enzymatic assays contained 2 ng HDAC6 and 10 uM of HDAC substrate. HDAC7 enzymatic assays contained 0.05 ng HDAC7 and 2 uM of HDAC substrate. HDAC8 enzymatic assays contained 5 ng HDAC8 and 2 uM of HDAC substrate. HDAC9 enzymatic assays contained 1 ng HDAC9 and 2 uM of HDAC substrate. HDAC10 enzymatic assays contained 75 ng HDAC10 and 10 uM of HDAC substrate. HDAC11 enzymatic assays contained 5 ng HDAC11 and 2 uM of HDAC substrate.

HDAC6 = HDAC6 (Homo sapiens (Human), UniProt Q9UBN7); experiment: HDAC6 enzymatic assay; assay type: biochemical; details: read-out: Human HDAC6 IC50
Description: as §1, §2, §3, §4

HDAC6, sequence (Q9UBN7 whole entry): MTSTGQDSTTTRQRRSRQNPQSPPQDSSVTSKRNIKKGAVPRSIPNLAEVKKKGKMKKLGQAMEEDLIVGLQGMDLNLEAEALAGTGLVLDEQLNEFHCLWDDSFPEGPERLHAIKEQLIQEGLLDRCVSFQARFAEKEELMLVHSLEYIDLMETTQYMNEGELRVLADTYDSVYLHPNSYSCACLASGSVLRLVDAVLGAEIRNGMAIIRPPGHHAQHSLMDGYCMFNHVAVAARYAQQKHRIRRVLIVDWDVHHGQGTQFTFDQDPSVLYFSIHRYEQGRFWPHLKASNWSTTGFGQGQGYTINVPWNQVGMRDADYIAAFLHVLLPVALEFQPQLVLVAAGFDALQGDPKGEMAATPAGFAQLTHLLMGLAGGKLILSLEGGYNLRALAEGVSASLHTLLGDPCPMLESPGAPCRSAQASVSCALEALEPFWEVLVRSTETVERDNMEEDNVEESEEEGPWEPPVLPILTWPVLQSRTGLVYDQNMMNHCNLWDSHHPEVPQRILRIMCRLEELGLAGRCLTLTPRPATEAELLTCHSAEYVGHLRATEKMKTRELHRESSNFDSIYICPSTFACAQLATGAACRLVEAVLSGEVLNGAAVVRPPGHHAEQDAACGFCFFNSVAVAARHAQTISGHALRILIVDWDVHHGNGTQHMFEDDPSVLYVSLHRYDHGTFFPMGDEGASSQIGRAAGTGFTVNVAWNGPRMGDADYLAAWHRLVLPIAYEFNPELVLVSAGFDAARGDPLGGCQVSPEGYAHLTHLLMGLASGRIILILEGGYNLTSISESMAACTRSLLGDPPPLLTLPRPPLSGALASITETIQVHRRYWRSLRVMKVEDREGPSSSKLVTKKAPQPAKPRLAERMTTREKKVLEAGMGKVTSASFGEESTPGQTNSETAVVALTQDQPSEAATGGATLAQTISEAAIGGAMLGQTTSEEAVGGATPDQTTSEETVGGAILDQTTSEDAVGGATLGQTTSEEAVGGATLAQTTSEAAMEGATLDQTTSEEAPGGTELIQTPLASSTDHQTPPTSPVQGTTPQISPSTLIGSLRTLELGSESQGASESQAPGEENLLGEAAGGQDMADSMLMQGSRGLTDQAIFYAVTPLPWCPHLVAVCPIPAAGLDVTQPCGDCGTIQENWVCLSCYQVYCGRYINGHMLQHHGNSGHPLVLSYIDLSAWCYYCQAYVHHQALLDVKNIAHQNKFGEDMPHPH
HDAC1, sequence (Q13547 whole entry): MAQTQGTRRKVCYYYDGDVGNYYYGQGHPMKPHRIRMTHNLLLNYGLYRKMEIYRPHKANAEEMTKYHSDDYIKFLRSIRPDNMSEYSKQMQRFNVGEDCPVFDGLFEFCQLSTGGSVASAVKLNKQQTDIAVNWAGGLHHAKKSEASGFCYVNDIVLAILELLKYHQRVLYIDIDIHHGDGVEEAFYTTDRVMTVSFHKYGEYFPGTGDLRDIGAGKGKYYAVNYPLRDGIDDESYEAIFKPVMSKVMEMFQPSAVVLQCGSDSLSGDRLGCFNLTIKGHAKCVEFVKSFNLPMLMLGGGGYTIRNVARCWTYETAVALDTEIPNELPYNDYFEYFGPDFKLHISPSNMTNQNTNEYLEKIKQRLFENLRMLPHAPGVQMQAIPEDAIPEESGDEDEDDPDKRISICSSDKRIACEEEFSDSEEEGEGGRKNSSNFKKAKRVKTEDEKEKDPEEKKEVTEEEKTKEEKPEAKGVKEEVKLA

SMILES | IC50 (HDAC1) [nM] | IC50 (HDAC6) [nM]
Fc1ccc(C(Cn2cc(C(F)(F)F)cn2)Nc2ncc(-c3nnc(C(F)F)o3)cn2)cc1 (single isomer, unassigned) [176(+), 5-(5-(difluoromethyl)-1,3,4-oxadiazol-2-yl)-N-(1-(4-fluorophenyl)-2-(4-(trifluoromethyl)-1H-pyrazol-1-yl)ethyl)pyrimidin-2-amine] | > 30000 | 160
Fc1ccc(C(Cn2cc(C(F)(F)F)cn2)Nc2ncc(-c3nnc(C(F)F)o3)cn2)cc1 (single isomer, unassigned) [176(−), 5-(5-(difluoromethyl)-1,3,4-oxadiazol-2-yl)-N-(1-(4-fluorophenyl)-2-(4-(trifluoromethyl)-1H-pyrazol-1-yl)ethyl)pyrimidin-2-amine] | > 30000 | 1500
O=C1CCCN1CC(Nc1ncc(-c2nnc(C(F)F)o2)cn1)c1ccc(F)cc1 (single isomer, unassigned) [177(+), 1-(2-((5-(5-(difluoromethyl)-1,3,4-oxadiazol-2-yl)pyrimidin-2-yl)amino)-2-(4-fluorophenyl)ethyl)pyrrolidin-2-one] | > 30000 | 110
O=C1CCCN1CC(Nc1ncc(-c2nnc(C(F)F)o2)cn1)c1ccc(F)cc1 (single isomer, unassigned) [177(−), 1-(2-((5-(5-(difluoromethyl)-1,3,4-oxadiazol-2-yl)pyrimidin-2-yl)amino)-2-(4-fluorophenyl)ethyl)pyrrolidin-2-one] | > 30000 | 76
CC(NS(C)(=O)=O)C(Nc1ncc(-c2nnc(C(F)F)o2)cn1)c1ccc(F)cc1 (single isomer, unassigned) [Example 127A, N-(1-((5-(5-(difluoromethyl)-1,3,4-oxadiazol-2-yl)pyrimidin-2-yl)amino)-1-(4-fluorophenyl)propan-2-yl)methanesulfonamide] | > 30000 | 45
CC(NS(C)(=O)=O)C(Nc1ncc(-c2nnc(C(F)F)o2)cn1)c1ccc(F)cc1 (single isomer, unassigned) [Example 127B, N-(1-((5-(5-(difluoromethyl)-1,3,4-oxadiazol-2-yl)pyrimidin-2-yl)amino)-1-(4-fluorophenyl)propan-2-yl)methanesulfonamide] | > 30000 | 49
Fc1ccc(C(COC2CC2)Nc2ncc(-c3nnc(C(F)F)o3)cn2)c(F)c1 (single isomer, unassigned) [Example 134A, N-(2-cyclopropoxy-1-(2,4-difluorophenyl)ethyl)-5-(5-(difluoromethyl)-1,3,4-oxadiazol-2-yl)pyrimidin-2-amine] | > 30000 | 220
Fc1ccc(C(CC(F)(F)F)Nc2ncc(-c3nnc(C(F)F)o3)cn2)cc1 (single isomer, unassigned; (+)) [13(+), (+)-5-(5-(difluoromethyl)-1,3,4-oxadiazol-2-yl)-N-(3,3,3-trifluoro-1-(4-fluorophenyl)propyl)pyrimidin-2-amine] | > 30000 | 30
CC(Nc1ncc(-c2nnc(C(F)F)o2)cn1)c1ccc(F)cc1 (single isomer, unassigned; (+)) [20(+), (+)-5-(5-(difluoromethyl)-1,3,4-oxadiazol-2-yl)-N-(1-(4-fluorophenyl)ethyl)pyrimidin-2-amine] | > 30000 | 21
CC(Nc1ncc(-c2nnc(C(F)F)o2)cn1)c1c(F)cccc1F (single isomer, unassigned; (+)) [100(+), (+)-5-(5-(difluoromethyl)-1,3,4-oxadiazol-2-yl)-N-(1-(2,6-difluorophenyl)ethyl)pyrimidin-2-amine] | > 30000 | 30
O=S1(=O)CCCN1CC(Nc1ncc(-c2nnc(C(F)F)o2)cn1)c1ccc(F)cc1 (single isomer, unassigned; (+)) [120(+), (+)-2-(2-((5-(5-(difluoromethyl)-1,3,4-oxadiazol-2-yl)pyrimidin-2-yl)amino)-2-(4-fluorophenyl)ethyl)isothiazolidine 1,1-dioxide] | > 30000 | 37
Fc1ccc(C(CC(F)(F)F)Nc2ncc(-c3nnc(C(F)F)o3)cn2)cc1 (single isomer, unassigned; (-)) [13(−), (−)-5-(5-(difluoromethyl)-1,3,4-oxadiazol-2-yl)-N-(3,3,3-trifluoro-1-(4-fluorophenyl)propyl)pyrimidin-2-amine] | > 30000 | 550
CC(Nc1ncc(-c2nnc(C(F)F)o2)cn1)c1ccc(F)cc1 (single isomer, unassigned; (-)) [20(−), (−)-5-(5-(difluoromethyl)-1,3,4-oxadiazol-2-yl)-N-(1-(4-fluorophenyl)ethyl)pyrimidin-2-amine] | > 30000 | > 1000
CC(Nc1ncc(-c2nnc(C(F)F)o2)cn1)c1c(F)cccc1F (single isomer, unassigned; (-)) [100(−), (−)-5-(5-(difluoromethyl)-1,3,4-oxadiazol-2-yl)-N-(1-(2,6-difluorophenyl)ethyl)pyrimidin-2-amine] | > 30000 | > 1000
O=S1(=O)CCCN1CC(Nc1ncc(-c2nnc(C(F)F)o2)cn1)c1ccc(F)cc1 (single isomer, unassigned; (-)) [120(−), (−)-2-(2-((5-(5-(difluoromethyl)-1,3,4-oxadiazol-2-yl)pyrimidin-2-yl)amino)-2-(4-fluorophenyl)ethyl)isothiazolidine 1,1-dioxide] | > 30000 | 150
CS(=O)(=O)N(CC(Nc1ncc(-c2nnc(C(F)F)o2)cn1)c1ccc(F)cc1F)CC(F)(F)F (stereo not drawn) [138(+), N-(2-((5-(5-(difluoromethyl)-1,3,4-oxadiazol-2-yl)pyrimidin-2-yl)amino)-2-(2,4-difluorophenyl)ethyl)-N-(2,2,2-trifluoroethyl)methanesulfonamide] | > 30000 | 75
CCS(=O)(=O)N(C)CC(Nc1ncc(-c2nnc(C(F)F)o2)cn1)c1ccc(F)cc1F (stereo not drawn) [140(+), N-(2-((5-(5-(difluoromethyl)-1,3,4-oxadiazol-2-yl)pyrimidin-2-yl)amino)-2-(2,4-difluorophenyl)ethyl)-N-methylethanesulfonamide] | > 30000 | 58
CCS(=O)(=O)N(CC(Nc1ncc(-c2nnc(C(F)F)o2)cn1)c1ccc(F)cc1F)CC(F)(F)F (stereo not drawn) [141(+), N-(2-((5-(5-(difluoromethyl)-1,3,4-oxadiazol-2-yl)pyrimidin-2-yl)amino)-2-(2,4-difluorophenyl)ethyl)-N-(2,2,2-trifluoroethyl)ethanesulfonamide] | > 30000 | 130
CN(CC(Nc1ncc(-c2nnc(C(F)F)o2)cn1)c1ccc(F)cc1F)S(=O)(=O)C1CC1 (stereo not drawn) [143(+), N-(2-((5-(5-(difluoromethyl)-1,3,4-oxadiazol-2-yl)pyrimidin-2-yl)amino)-2-(2,4-difluorophenyl)ethyl)-N-methylcyclopropanesulfonamide] | > 30000 | 53
O=S(=O)(C1CC1)N(CC(Nc1ncc(-c2nnc(C(F)F)o2)cn1)c1ccc(F)cc1F)CC(F)(F)F (stereo not drawn) [144(+), N-(2-((5-(5-(difluoromethyl)-1,3,4-oxadiazol-2-yl)pyrimidin-2-yl)amino)-2-(2,4-difluorophenyl)ethyl)-N-(2,2,2-trifluoroethyl)cyclopropanesulfonamide] | > 30000 | 160
CN(CC(Nc1ncc(-c2nnc(C(F)F)o2)cn1)c1ccc(OC(F)F)cc1F)S(C)(=O)=O (stereo not drawn) [145(+), N-(2-(4-(difluoromethoxy)-2-fluorophenyl)-2-((5-(5-(difluoromethyl)-1,3,4-oxadiazol-2-yl)pyrimidin-2-yl)amino)ethyl)-N-methylmethanesulfonamide] | > 30000 | 41
CS(=O)(=O)N(CC(Nc1ncc(-c2nnc(C(F)F)o2)cn1)c1ccc(OC(F)F)cc1F)CC(F)(F)F (stereo not drawn) [146(+), N-(2-(4-(difluoromethoxy)-2-fluorophenyl)-2-((5-(5-(difluoromethyl)-1,3,4-oxadiazol-2-yl)pyrimidin-2-yl)amino)ethyl)-N-(2,2,2-trifluoroethyl)methanesulfonamide] | > 30000 | 140
